{
  "source": "paper PMC7213079",
  "about": "“Hit Identification of New Potent PqsR Antagonists as Inhibitors of Quorum Sensing in Planktonic and Biofilm Grown Pseudomonas aeruginosa” (Frontiers in Chemistry, 2020)",
  "key": {"PA14 mCTX::PpqsA-lux": {"tested_on": "PA14 mCTX::PpqsA-lux", "assay": "PpqsA-lux bioreporter assay, strain PA14", "type": "cell-based, Pseudomonas aeruginosa", "details": "Pseudomonas aeruginosa, PA14, read-out: IC50 PA14", "from_the_text": "To inform the structural variation of 7, crystal structures with the endogenous ligand [4-hydroxy-2-heptylquinoline (NHQ)] and the inhibitor M64 were used (Ilangovan et al., [2013]; Kitao et al., [2018]). The PqsR LBD is dominated by lipophilic interactions, therefore the current SAR exploration mainly focused on varying the aromatic tail substituents and examining the effect of 8-position substitution. The rationale for these modifications was primarily based on molecular docking studies that provided insights into the mode of binding of 7 and approaches intended to improve potency. The substituent at the para- position of the aromatic ring appeared to be crucial for biological activity due to the vital π-π stacking interaction of this group with Tyr^258. […] These strains emit light upon activation of PqsR by the endogenous production of these signal molecules. […] The results of the SAR in this assay highlight the importance of testing any prospective anti-virulence strategy on multiple genetically distinct P. aeruginosa strains as a means to reduce the chance of failure at both pre-clinical and clinical stages (Freschi et al., [2015]). […]\n(§1) PA14 mCTX::PpqsA-lux PA14 with chromosomal mini-CTX::PpqsA-lux (Soukarieh insertion; TcR et al., 2018) […]\nmini-CTX::PpqsA-lux R6K-based mini-CTX suicide plasmid for the (Diggle et chromosomal insertion of a PpqsA-lux al., 2007) transcriptional reporter fusion; TcR\nBiosensor reporter assay:\nStrains PA14 mCTX::PpqsA-lux and PAO1-L mCTX::PpqsA-lux were constructed using plasmid mini-CTX::PpqsA-lux as previously described (Diggle et al., 2007) and the assay was performed according to published procedures (Fletcher et al., 2007). For screening, the compounds were tested at 10 µM concentration which was prepared from 10 mM stock in DMSO. […]"}, "PA14": {"tested_on": "PA14", "assay": "Pyocyanin quantification, PA14", "type": "cell-based, Pseudomonas aeruginosa", "details": "PA14, compound at 3 x IC50, 16 h, compared with the control", "from_the_text": "Pyocyanin is an important virulence factor for P. aeruginosa infections and in particular respiratory and urinary tract infections. Pyocyanin is a redox-active phenazine the production of which is regulated via PqsR and PqsE (Hall et al., [2016]; Rampioni et al., [2016]; Higgins et al., [2018]). Therefore, pyocyanin production serves as an indirect readout of the activity of the pqs QS system. […] Compound 40 reduced pyocyanin production by over 80% in both strains in agreement with bioreporter assay results.\nFigure 4 Pyocyanin production by Pseudomonas aeruginosa after treatment with pqs inhibitors 8, 14, 23, 34, 25, 26, and 40. Quantification of pyocyanin production after inhibitor treatment at 3 × IC50 for both PAO1-L and PA14. The graph represents the average of three independent experiments carried out in triplicate (n = 9).\nPAO1-L Wild type PAO1, Lausanne subline. B.\nPAO1-L mCTX::PpqsA- PAO1-L with chromosomal mini-CTX::PpqsA-lux (Soukarieh lux insertion; TcR et al., 2018)\nPA14 Wild type UCBPP-PA14 (Rahme et\nas §1\nPyocyanin quantification: […]\nPyocyanin pigment was extracted into chloroform by mixing 7.5 mL of supernatant with 4.5 mL of chloroform. Pyocyanin w as further extracted into 1.5 mL of 0.2 M HCL which gave a pink/red solution and the absorbance was measured at 520 nm."}},
  "data": [
    {"smiles": "Cn1c2ccccc2c2nnc(SCC(=O)Nc3ccc(Oc4ccccn4)cc3)nc21", "note": "[Compound 40, 2-((5-Methyl-5H-[1,2,4]triazino[5,6-b]indol-3-yl)thio)-N-(4-(pyridin-2-yloxy)phenyl)acetamide]", "values": [
      {"measurement": "IC50", "setting": "PA14 mCTX::PpqsA-lux", "result": "340 ± 30", "unit": "nM"},
      {"measurement": "inhibition of pyocyanin production", "setting": "PA14", "result": "over 80%"}
    ]}
  ]
}
